# Experimental data published in ChEMBL document CHEMBL1155715, “New natural epothilones from Sorangium cellulosum, strains So ce90/B2 and So ce90/D13: isolation, structure elucidation, and SAR studies” (J Nat Prod, 2001).
# Test system: L929
# Experiment: Cytotoxicity against mouse L929 cells
# Assay type: cell-based
# Conditions: not given
row,SMILES,IC50 [µg/mL]
1,C/C(=C\c1csc(C)n1)[C@@H]1C/C=C/CCC[C@H](C)[C@H](O)[C@@H](C)C(=O)[C@@H](C)[C@@H](O)CC(=O)O1,0.4
2,C/C(=C\c1csc(C)n1)[C@@H]1C/C=C/CCC[C@H](C)[C@H](O)[C@@H](C)C(=O)[C@H](C)[C@@H](O)CC(=O)O1,0.08

# Same assay, conditions: read-out: IC50
row,SMILES,IC50 [µg/mL]
1,C/C(=C\c1csc(C)n1)[C@@H](O)C/C=C\CCC[C@H](C)[C@H](O)[C@@H](C)C(=O)C(C)C,0.8
2,CCC(=O)[C@@H](C)CCC/C=C\C[C@H](O)/C(C)=C/c1csc(C)n1,> 4
3,CCC(=O)[C@@H](C)CCC/C(C)=C\C[C@H](O)/C(C)=C/c1csc(C)n1,> 4
4,C/C(=C\c1csc(C)n1)[C@@H]1C[C@@H]2O[C@@H]2CCC[C@H](C)[C@H](O)[C@@H](C)C(=O)[C@H](C)[C@@H](O)CC(=O)O1 [EPOTHILONE A1],0.02
5,C/C(=C\c1csc(C)n1)[C@@H]1C[C@@H]2O[C@@H]2CCC[C@H](C)[C@H](O)[C@@H](C)C(=O)[C@@H](C)[C@@H](O)CC(=O)O1 [EPOTHILONE A2],0.007
6,Cc1nc(/C=C/[C@@H]2C[C@@H]3O[C@@H]3CCC[C@H](C)[C@H](O)[C@@H](C)C(=O)C(C)(C)[C@@H](O)CC(=O)O2)cs1 [EPOTHILONE A8],0.02
7,Cc1nc(/C=C(\CO)[C@@H]2C[C@@H]3O[C@@H]3CCC[C@H](C)[C@H](O)[C@@H](C)C(=O)C(C)(C)[C@@H](O)CC(=O)O2)cs1 [EPOTHILONE A9],0.1
8,C/C(=C\c1csc(C)n1)[C@@H]1C[C@@H]2O[C@@H]2CCC[C@H](C)[C@H](O)[C@@H](C)C(=O)C(C)(C)[C@@H](O)CC(=O)O1 [EPOTHILONE A],0.004
9,C/C(=C\c1csc(C)n1)[C@@H]1C/C=C\CCC[C@H](C)[C@H](O)[C@@H](C)C(=O)[C@H](C)[C@@H](O)CC(=O)O1 [EPOTHILONE C1],0.9
10,C/C(=C\c1csc(C)n1)[C@@H]1C/C=C\CCC[C@H](C)[C@H](O)[C@@H](C)C(=O)[C@@H](C)[C@@H](O)CC(=O)O1 [EPOTHILONE C2],0.8
11,C/C(=C\c1csc(C)n1)[C@@H]1C/C=C\CCC[C@H](C)[C@H](O)CC(=O)C(C)(C)[C@@H](O)CC(=O)O1 [EPOTHILONE C3],1.5
12,C/C(=C\c1csc(C)n1)[C@@H]1C/C=C\CCCC[C@H](O)[C@@H](C)C(=O)C(C)(C)[C@@H](O)CC(=O)O1 [EPOTHILONE C4],0.8
13,C/C(=C\c1csc(C)n1)[C@@H]1C/C=C\CC/C=C(\C)[C@H](O)[C@@H](C)C(=O)C(C)(C)[C@@H](O)CC(=O)O1 [EPOTHILONE C5],1.5
14,C/C(=C\c1csc(C)n1)[C@@H]1C/C=C\C=C\C[C@H](C)[C@H](O)[C@@H](C)C(=O)C(C)(C)[C@@H](O)CC(=O)O1 [EPOTHILONE C6],0.12
15,C/C(=C\c1csc(C)n1)[C@H]1OC(=O)C[C@H](O)C(C)(C)C(=O)[C@H](C)[C@@H](O)[C@@H](C)CCC/C=C\[C@@H]1O [EPOTHILONE C7],0.025
16,Cc1nc(/C=C/[C@@H]2C/C=C\CCC[C@H](C)[C@H](O)[C@@H](C)C(=O)C(C)(C)[C@@H](O)CC(=O)O2)cs1 [EPOTHILONE C8],0.25
17,Cc1nc(/C=C(\CO)[C@@H]2C/C=C\CCC[C@H](C)[C@H](O)[C@@H](C)C(=O)C(C)(C)[C@@H](O)CC(=O)O2)cs1 [EPOTHILONE C9],0.2
18,C/C(=C\c1csc(C)n1)[C@@H]1C/C=C\CCC[C@H](C)[C@H](O)[C@@H](C)C(=O)C(C)(C)[C@@H](O)CC(=O)O1 [EPOTHILONE C],0.06

row,SMILES,IC50 [µg/mL]
1,C/C1=C/C[C@@H](/C(C)=C/c2csc(C)n2)OC(=O)C[C@H](O)[C@@H](C)C(=O)[C@H](C)[C@@H](O)[C@@H](C)CCC1 [EPOTHILONE D1],0.035
2,C/C1=C/C[C@@H](/C(C)=C/c2csc(C)n2)OC(=O)C[C@H](O)[C@H](C)C(=O)[C@H](C)[C@@H](O)[C@@H](C)CCC1 [EPOTHILONE D2],0.007
3,C/C1=C/C[C@@H](/C(C)=C/c2csc(C)n2)OC(=O)C[C@H](O)C(C)(C)C(=O)[C@H](C)[C@@H](O)/C(C)=C/CC1 [EPOTHILONE D5],0.2
4,C/C1=C/C[C@@H](/C(C)=C/c2csc(C)n2)OC(=O)C[C@H](O)C(C)(C)C(=O)[C@H](C)[C@@H](O)[C@@H](C)CCC1 [EPOTHILONE D],0.02
5,C/C(=C\c1csc(CO)n1)[C@@H]1C[C@@H]2O[C@@H]2CCC[C@H](C)[C@H](O)[C@@H](C)C(=O)C(C)(C)[C@@H](O)CC(=O)O1 [EPOTHILONE E],0.01
6,C/C(=C\c1csc(CO)n1)[C@@H]1C[C@@H]2O[C@]2(C)CCC[C@H](C)[C@H](O)[C@@H](C)C(=O)C(C)(C)[C@@H](O)CC(=O)O1 [EPOTHILONE F],0.0015
7,C/C(=C\c1coc(C)n1)[C@@H]1C[C@@H]2O[C@@H]2CCC[C@H](C)[C@H](O)[C@@H](C)C(=O)C(C)(C)[C@@H](O)CC(=O)O1 [EPOTHILONE G1],0.006
8,C/C(=C\c1coc(C)n1)[C@@H]1C[C@@H]2O[C@]2(C)CCC[C@H](C)[C@H](O)[C@@H](C)C(=O)C(C)(C)[C@@H](O)CC(=O)O1 [EPOTHILONE G2],0.001
9,C/C(=C\c1coc(C)n1)[C@@H]1C/C=C\CCC[C@H](C)[C@H](O)[C@@H](C)C(=O)C(C)(C)[C@@H](O)CC(=O)O1 [EPOTHILONE H1],0.12
10,C/C1=C/C[C@@H](/C(C)=C/c2coc(C)n2)OC(=O)C[C@H](O)C(C)(C)C(=O)[C@H](C)[C@@H](O)[C@@H](C)CCC1 [EPOTHILONE H2],0.011
11,C/C(=C\c1csc(C)n1)[C@@H]1C/C=C\CCCCC[C@H](C)[C@H](O)[C@@H](C)C(=O)C(C)(C)[C@@H](O)CC(=O)O1 [EPOTHILONE I1],0.8
12,C/C(=C\c1csc(C)n1)[C@@H]1C/C=C\CCCC(C)C[C@H](C)[C@H](O)[C@@H](C)C(=O)C(C)(C)[C@@H](O)CC(=O)O1 (some centres not stated) [EPOTHILONE I2],0.4
13,C/C1=C/C[C@@H](/C(C)=C/c2csc(C)n2)OC(=O)C[C@H](O)C(C)(C)C(=O)[C@H](C)[C@@H](O)[C@@H](C)CC(C)CCC1 (some centres not stated) [EPOTHILONE I3],0.6
14,C/C(=C\c1csc(C)n1)[C@@H]1C/C=C\CCCC(C)C[C@H](C)[C@H](O)[C@@H](C)C(=O)[C@@H](C)[C@@H](O)CC(=O)O1 (some centres not stated) [EPOTHILONE I4],0.3
15,C/C1=C/C[C@@H](/C(C)=C/c2csc(C)n2)OC(=O)C[C@H](O)[C@H](C)C(=O)[C@H](C)[C@@H](O)[C@@H](C)CC(C)CCC1 (some centres not stated) [EPOTHILONE I5],0.1
16,C/C1=C/C[C@@H](/C(C)=C/c2csc(C)n2)OC(=O)C[C@H](O)[C@@H](C)C(=O)[C@H](C)[C@@H](O)[C@@H](C)CC(C)CCC1 (some centres not stated) [EPOTHILONE I6],0.6
17,C/C(=C\c1csc(C)n1)[C@@H]1C[C@@H]2O[C@]2(C)CCC[C@H](C)[C@H](O)[C@@H](C)C(=O)C(C)(C)[C@@H](O)CC(=O)O1 [PATUPILONE],0.001
